ChEMBL document CHEMBL3885861, “Open TG-GATES”

Organism: Rattus norvegicus
Test: Open TG-GATES - Regimen: Single
Assay type: toxicity, organism-based, Sprague-Dawley
Parameters: regimen Single, gender Male, age 6 weeks
Conditions: in vivo, po, 30 mg/kg, route gavage, dose level Low; for APTT / Bas / Eos / Fbg / Hb / Ht / Lym / MCH / MCHC / MCV / Mono / Neu / PT / Plat / RBC / Ret / WBC: tissue Blood; for KIDNEY_L / KIDNEY_R / KIDNEY_TOTAL: tissue Kidney; for LIVER: tissue Liver; for A/G / ALP / ALT / AST / BUN / CRE / Ca / Cl / DBIL / GLC / IP / K / LDH / Na / PL / RALB / TBIL / TC / TG / TP / gamma-GTP: tissue Plasma

## Nc1ccc(Cc2ccc(N)cc2)cc1
3 h
  TERMINAL_BW: 209.5 g
  APTT: 14.3 s
  Bas: 0%
  Eos: 0.6%
  Fbg: 262.8 mg/dL
  Hb: 13 g/dL
  Ht: 38%
  Lym: 74.2%
  MCH: 21 pg
  MCHC: 34.1%
  MCV: 61.4 fL
  Mono: 3.6%
  Neu: 20.8%
  PT: 12 s
  Plat: 147.2 x10_4/uL
  RBC: 619 x10_4/ul
  Ret: 7.8%
  WBC: 100.2 x10_2/uL
  KIDNEY_L: 0.9 g
  KIDNEY_R: 0.9 g
  KIDNEY_TOTAL: 1.8 g
  LIVER: 8.8 g
  A/G: 0.8
  ALP: 1545.4 IU/L
  ALT: 47.4 IU/L
  AST: 81.6 IU/L
  BUN: 11 mg/dL
  CRE: 0.2 mg/dL
  Ca: 10.9 mg/dL
  Cl: 105 meq/L
  DBIL: 0.022 mg/dL
  GLC: 172 mg/dL
  IP: 9.1 mg/dL
  K: 3.8 meq/L
  LDH: 65.4 IU/L
  Na: 141.2 meq/L
  PL: 138.6 mg/dL
  RALB: 2.6 g/dL
  TBIL: 0.062 mg/dL
  TC: 73 mg/dL
  TG: 79.4 mg/dL
  TP: 5.6 g/dL
  gamma-GTP: 1.4 IU/L
6 h
  TERMINAL_BW: 206.3 g
  APTT: 14.7 s
  Bas: 0%
  Eos: 0.6%
  Fbg: 274.6 mg/dL
  Hb: 13.2 g/dL
  Ht: 38.9%
  Lym: 70.8%
  MCH: 21.3 pg
  MCHC: 34%
  MCV: 62.7 fL
  Mono: 2.2%
  Neu: 25.2%
  PT: 11.5 s
  Plat: 141.7 x10_4/uL
  RBC: 621.2 x10_4/ul
  Ret: 8.2%
  WBC: 77.7 x10_2/uL
  KIDNEY_L: 0.9 g
  KIDNEY_R: 0.9 g
  KIDNEY_TOTAL: 1.8 g
  LIVER: 8.6 g
  A/G: 0.8
  ALP: 1547 IU/L
  ALT: 37.2 IU/L
  AST: 74.2 IU/L
  BUN: 7.4 mg/dL
  CRE: 0.2 mg/dL
  Ca: 10.7 mg/dL
  Cl: 107.2 meq/L
  DBIL: 0.022 mg/dL
  GLC: 167 mg/dL
  IP: 9.6 mg/dL
  K: 4 meq/L
  LDH: 52.4 IU/L
  Na: 141.8 meq/L
  PL: 146.2 mg/dL
  RALB: 2.5 g/dL
  TBIL: 0.074 mg/dL
  TC: 81 mg/dL
  TG: 61.2 mg/dL
  TP: 5.6 g/dL
  gamma-GTP: 1.2 IU/L
9 h
  TERMINAL_BW: 205 g
  APTT: 13.5 s
  Bas: 0%
  Eos: 0.8%
  Fbg: 260 mg/dL
  Hb: 12.8 g/dL
  Ht: 37.2%
  Lym: 74%
  MCH: 21.3 pg
  MCHC: 34.2%
  MCV: 62.1 fL
  Mono: 2.4%
  Neu: 22%
  PT: 11.8 s
  Plat: 138.8 x10_4/uL
  RBC: 600 x10_4/ul
  Ret: 8.6%
  WBC: 106 x10_2/uL
  KIDNEY_L: 0.9 g
  KIDNEY_R: 0.9 g
  KIDNEY_TOTAL: 1.8 g
  LIVER: 7.6 g
  A/G: 0.8
  ALP: 1400.6 IU/L
  ALT: 34.4 IU/L
  AST: 75.4 IU/L
  BUN: 8.8 mg/dL
  CRE: 0.2 mg/dL
  Ca: 10.5 mg/dL
  Cl: 106.8 meq/L
  DBIL: 0.03 mg/dL
  GLC: 167.6 mg/dL
  IP: 11.3 mg/dL
  K: 4.1 meq/L
  LDH: 53.8 IU/L
  Na: 143.4 meq/L
  PL: 134.6 mg/dL
  RALB: 2.5 g/dL
  TBIL: 0.094 mg/dL
  TC: 76 mg/dL
  TG: 50.2 mg/dL
  TP: 5.4 g/dL
  gamma-GTP: 1.6 IU/L
24 h
  TERMINAL_BW: 219.9 g
  APTT: 13.8 s
  Bas: 0%
  Eos: 1%
  Fbg: 278.6 mg/dL
  Hb: 13.4 g/dL
  Ht: 38.6%
  Lym: 72.2%
  MCH: 20.9 pg
  MCHC: 34.7%
  MCV: 60.2 fL
  Mono: 2.6%
  Neu: 23.6%
  PT: 11.6 s
  Plat: 137.1 x10_4/uL
  RBC: 640.4 x10_4/ul
  Ret: 6.5%
  WBC: 93 x10_2/uL
  KIDNEY_L: 0.9 g
  KIDNEY_R: 1 g
  KIDNEY_TOTAL: 1.9 g
  LIVER: 10.1 g
  A/G: 0.9
  ALP: 1877.6 IU/L
  ALT: 44 IU/L
  AST: 82 IU/L
  BUN: 14.8 mg/dL
  CRE: 0.2 mg/dL
  Ca: 11.1 mg/dL
  Cl: 105.6 meq/L
  DBIL: 0.02 mg/dL
  GLC: 168.4 mg/dL
  IP: 8 mg/dL
  K: 4 meq/L
  LDH: 53.6 IU/L
  Na: 143.4 meq/L
  PL: 160.2 mg/dL
  RALB: 2.7 g/dL
  TBIL: 0.046 mg/dL
  TC: 92.8 mg/dL
  TG: 91.6 mg/dL
  TP: 5.7 g/dL
  gamma-GTP: 1 IU/L
